The source of these data is patent US10457710B2, “Antimicrobial peptides, their variants and uses” (priority 2015, dated 2019).

The test deals with clinical strains of bacteria and yeasts. Description: MIC, all clinical bacteria and yeasts tested together. The test is classed as cell-based. The following applies: bacterial strains other than E. coli. The procedure: Minimum inhibition concetrations (MICs) were determined against Escherichia coli (ATCC 25922), Staphylococcus aureus (ATCC 25923), Klebsiella pneumoniae (ATCC 10031) and Pseudomonas aeruginosa (ATCC 27853). Also clinical strains of E. coli, K. pneumoniae, E. cloacae, P. aeruginosa, Serratia marcescens, Proteus mirabilis, S. pneumoniae, Acinetobacter baumannii, A. johnsonii and S. aureus were used for MICs assays. Additionally, clinical strains of yeast including Candida albicans, C. glabrata, C. parapsilosis and C. quillermondiae were used. The susceptibility of these microorganisms to Chain peptides were determined using micro broth dilution assay. Colonies of the respective microorganism from Muller Hinton (MH) agar plates incubated overnight were suspended in MH broth media and final concentration of microorganism was adjusted to 5.0×10^5 cfu/ml. An aliquot of 10 μl of each Chain peptide, or gentamicin, tetracycline as reference antibiotics were added in differing concentrations along with 90 μl of bacterial suspension to 96 well polypropylene plates and incubated at 37° C. for 20 to 24 hours. Concentrations of Chain peptides and reference antibiotics ranged from 0.125 to 128 μg/ml and the MICs were recorded as the lowest concentration with no visual growth of bacteria. Similarly, antifungal MICs were tested in Potato dextrose broth. […]

Where a SMILES comes first, the peptide text is derived from it. [ ]: non-standard residue; d: D form.

As for `CC(C)C[C@@H](NC(=O)[C@H](N)CCCNC(=N)N)C(=O)N[C@H](CCCCN)C(=O)N[C@H](CCCNC(=N)N)C(=O)N[C@H](Cc1c[nH]c2ccccc12)C(=O)N[C@H](CCCNC(=N)N)C(=O)N[C@H](CC(C)C)C(=O)N[C@H](Cc1ccccc1)C(=O)N[C@H](CCCNC(=N)N)C(=O)N[C@H](CCCCN)C(=O)N[C@H](CCCNC(=N)N)C(=O)O` [Chain306D] (H-[dR][dL][dK][dR][dW][dR][dL][dF][dR][dK][dR]-OH), the “activity for the rest of the bacterial strains” value is > 32 µg/mL.
